Results as given in the OligoGym collection.
HELM strings list units from the 5' end as sugar, base in round brackets, then linkage (d deoxyribose, r ribose, m 2'-O-methyl, p phosphodiester). Strings are as the collection lists them; they lack the last nucleoside at the 3' end of the tested compound. [moe] = 2'-O-(2-methoxyethyl) (MOE); [sp] = phosphorothioate linkage; [m5C] = 5-methylcytosine

What follows are substances tested against C9ORF72 (assay: mouse, dose not given). Settings: ASO.

Substance	3 h FOB score
RNA1{[moe](T)[sp].[moe](G)p.[moe](G)p.[moe](T)p.[moe](T)p.[moe](A)p.[moe](A)p.d(T)[sp].d([m5C])[sp].d(T)[sp].d(T)[sp].d(T)[sp].d(A)[sp].d(T)[sp].d([m5C])[sp].d(A)[sp].d(G)[sp].[moe](G)[sp].[moe](T)}$$$$ (last 3' nucleoside missing)	3.75 score 0-7
RNA1{[moe](T)[sp].[moe](G)p.[moe](G)p.[moe](T)p.[moe](T)p.[moe](A)p.d(A)[sp].d(T)[sp].d([m5C])[sp].d(T)[sp].d(T)[sp].d(T)[sp].d(A)[sp].d(T)[sp].d([m5C])[sp].d(A)[sp].[moe](G)p.[moe](G)[sp].[moe](T)}$$$$ (last 3' nucleoside missing)	1 score 0-7
RNA1{[moe](T)[sp].[moe](G)p.[moe](G)p.[moe](T)p.d(T)[sp].d(A)[sp].d(A)[sp].d(T)[sp].d([m5C])[sp].d(T)[sp].d(T)[sp].d(T)[sp].d(A)[sp].d(T)[sp].[moe]([m5C])p.[moe](A)p.[moe](G)p.[moe](G)[sp].[moe](T)}$$$$ (last 3' nucleoside missing)	1 score 0-7
RNA1{[moe](T)[sp].[moe](G)p.[moe](G)p.d(T)[sp].d(T)[sp].d(A)[sp].d(A)[sp].d(T)[sp].d([m5C])[sp].d(T)[sp].d(T)[sp].d(T)[sp].d(A)[sp].[moe](T)p.[moe]([m5C])p.[moe](A)p.[moe](G)p.[moe](G)[sp].[moe](T)}$$$$ (last 3' nucleoside missing)	0.25 score 0-7
RNA1{[moe](T)[sp].[moe]([m5C])p.[moe](T)[sp].d(G)[sp].d(T)[sp].d([m5C])[sp].d(T)[sp].d(T)[sp].d(T)[sp].d(G)[sp].d(G)[sp].[moe](A)p.[moe](G)p.[moe]([m5C])p.[moe]([m5C])p.[moe]([m5C])[sp].[moe](A)}$$$$ (last 3' nucleoside missing)	4 score 0-7
RNA1{[moe](T)[sp].[moe]([m5C])p.[moe](T)p.[moe](G)[sp].d(T)[sp].d([m5C])[sp].d(T)[sp].d(T)[sp].d(T)[sp].d(G)[sp].d(G)[sp].d(A)[sp].[moe](G)p.[moe]([m5C])p.[moe]([m5C])p.[moe]([m5C])[sp].[moe](A)}$$$$ (last 3' nucleoside missing)	5.25 score 0-7
RNA1{[moe](T)[sp].[moe]([m5C])p.[moe](T)p.[moe](G)p.[moe](T)p.[moe]([m5C])[sp].d(T)[sp].d(T)[sp].d(T)[sp].d(G)[sp].d(G)[sp].d(A)[sp].d(G)[sp].d([m5C])[sp].[moe]([m5C])p.[moe]([m5C])[sp].[moe](A)}$$$$ (last 3' nucleoside missing)	5.5 score 0-7
RNA1{[moe](T)[sp].[moe]([m5C])p.[moe](T)p.[moe](G)p.[moe](T)p.[moe]([m5C])p.[moe](T)[sp].d(T)[sp].d(T)[sp].d(G)[sp].d(G)[sp].d(A)[sp].d(G)[sp].d([m5C])[sp].d([m5C])[sp].[moe]([m5C])[sp].[moe](A)}$$$$ (last 3' nucleoside missing)	6.25 score 0-7
RNA1{[moe](T)[sp].[moe]([m5C])p.[moe](T)p.[moe](G)p.[moe](T)p.[moe]([m5C])p.[moe](T)p.d(T)[sp].d(T)[sp].d(G)[sp].d(G)[sp].d(A)[sp].d(G)[sp].d([m5C])[sp].d([m5C])[sp].d([m5C])[sp].d(A)[sp].[moe](A)[sp].[moe](A)}$$$$ (last 3' nucleoside missing)	2 score 0-7
RNA1{[moe](T)[sp].[moe]([m5C])p.[moe](T)p.[moe](G)p.[moe](T)p.[moe]([m5C])p.d(T)[sp].d(T)[sp].d(T)[sp].d(G)[sp].d(G)[sp].d(A)[sp].d(G)[sp].d([m5C])[sp].d([m5C])[sp].d([m5C])[sp].[moe](A)p.[moe](A)[sp].[moe](A)}$$$$ (last 3' nucleoside missing)	4.25 score 0-7
RNA1{[moe](T)[sp].[moe]([m5C])p.[moe](T)p.[moe](G)p.d(T)[sp].d([m5C])[sp].d(T)[sp].d(T)[sp].d(T)[sp].d(G)[sp].d(G)[sp].d(A)[sp].d(G)[sp].d([m5C])[sp].[moe]([m5C])p.[moe]([m5C])p.[moe](A)p.[moe](A)[sp].[moe](A)}$$$$ (last 3' nucleoside missing)	6.75 score 0-7
RNA1{[moe](T)[sp].[moe]([m5C])p.[moe](T)p.d(G)[sp].d(T)[sp].d([m5C])[sp].d(T)[sp].d(T)[sp].d(T)[sp].d(G)[sp].d(G)[sp].d(A)[sp].d(G)[sp].[moe]([m5C])p.[moe]([m5C])p.[moe]([m5C])p.[moe](A)p.[moe](A)[sp].[moe](A)}$$$$ (last 3' nucleoside missing)	6.75 score 0-7
RNA1{[moe]([m5C])[sp].[moe](A)p.[moe](G)p.[moe](G)[sp].d([m5C])[sp].d(T)[sp].d(G)[sp].d([m5C])[sp].d(G)[sp].d(G)[sp].d(T)[sp].d(T)[sp].[moe](G)p.[moe](T)p.[moe](T)p.[moe](T)[sp].[moe]([m5C])}$$$$ (last 3' nucleoside missing)	3.5 score 0-7
RNA1{[moe]([m5C])[sp].[moe](A)p.[moe](G)p.[moe](G)p.[moe]([m5C])p.[moe](T)[sp].d(G)[sp].d([m5C])[sp].d(G)[sp].d(G)[sp].d(T)[sp].d(T)[sp].d(G)[sp].d(T)[sp].[moe](T)p.[moe](T)[sp].[moe]([m5C])}$$$$ (last 3' nucleoside missing)	4.5 score 0-7
RNA1{[moe]([m5C])[sp].[moe](A)p.[moe](G)p.[moe](G)p.[moe]([m5C])p.[moe](T)p.d(G)[sp].d([m5C])[sp].d(G)[sp].d(G)[sp].d(T)[sp].d(T)[sp].d(G)[sp].d(T)[sp].d(T)[sp].[moe](T)p.[moe]([m5C])[sp].[moe]([m5C])}$$$$ (last 3' nucleoside missing)	6 score 0-7
RNA1{[moe]([m5C])[sp].[moe](A)p.[moe](G)p.[moe](G)p.[moe]([m5C])p.[moe](T)p.d(G)[sp].d([m5C])[sp].d(G)[sp].d(G)[sp].d(T)[sp].d(T)[sp].d(G)[sp].d(T)[sp].d(T)[sp].d(T)[sp].[moe]([m5C])p.[moe]([m5C])[sp].[moe]([m5C])}$$$$ (last 3' nucleoside missing)	2 score 0-7
RNA1{[moe]([m5C])[sp].[moe](A)p.[moe](G)p.[moe](G)p.[moe]([m5C])p.d(T)[sp].d(G)[sp].d([m5C])[sp].d(G)[sp].d(G)[sp].d(T)[sp].d(T)[sp].d(G)[sp].d(T)[sp].[moe](T)p.[moe](T)p.[moe]([m5C])[sp].[moe]([m5C])}$$$$ (last 3' nucleoside missing)	5 score 0-7
RNA1{[moe]([m5C])[sp].[moe](A)p.[moe](G)p.[moe](G)p.d([m5C])[sp].d(T)[sp].d(G)[sp].d([m5C])[sp].d(G)[sp].d(G)[sp].d(T)[sp].d(T)[sp].d(G)[sp].[moe](T)p.[moe](T)p.[moe](T)p.[moe]([m5C])[sp].[moe]([m5C])}$$$$ (last 3' nucleoside missing)	4 score 0-7
RNA1{[moe]([m5C])[sp].[moe](A)p.[moe](G)p.[moe](G)p.d([m5C])[sp].d(T)[sp].d(G)[sp].d([m5C])[sp].d(G)[sp].d(G)[sp].d(T)[sp].d(T)[sp].d(G)[sp].d(T)[sp].[moe](T)p.[moe](T)p.[moe]([m5C])p.[moe]([m5C])[sp].[moe]([m5C])}$$$$ (last 3' nucleoside missing)	4.75 score 0-7
